molecular target: human Autotaxin protein (Homo sapiens, UniProt Q13822); assay: Evaluation of the inhibitory activity against human Autotaxin protein (18:1 LysoPC substrate, choline assay kit, absorbance at 570 nm); type: biochemical; conditions: compound at 500nM; 2 hours at 37 °C; % inhibition = (1 - absorbance test group / absorbance control group) X 100
Summary of the method: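 Human autotaxin (20 μL of 240 nM stock) was reacted with sonicated 18:1 LysoPC (10 μL of 360 μM stock) in Tris pH 8.0 buffer with BSA for 2 h at 37 °C, using 6 compound concentrations from 5-fold dilution. Released choline was detected via choline oxidase/dye probe (30 min), read as absorbance at 570 nm. % inhibition was calculated relative to control.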

Structure (SMILES) | inhibition at 0.5 µM
FC1(c2c[nH]nn2)CN(c2nnc(-c3cnc(NC4Cc5ccccc5C4)nc3)o2)C1 [Example 83, N-(2,3-dihydro-1H-inden-2-yl)-5-(5-(3-fluoro-3-(1H-1,2,3-triazol-4-yl)azetidin-1-yl)-1,3,4-oxadiazol-2-yl)pyrimidin-2-amine] | 81.6%
CC(C)(C)C(=O)OCn1cc(C2CN(c3nnc(-c4cnc(NC5Cc6ccncc6C5)nc4)o3)C2)nn1 (centres unmarked) [Example 84, (4-(1-(5-(2-((6,7-dihydro-5H-cyclopenta[c]pyridin-6-yl)amino)pyrimidin-5-yl)-1,3,4-oxadiazol-2-yl)azetidin-3-yl)-1H-1,2,3-triazol-1-yl)methyl pivalate] | 1.1%
c1cc2c(cn1)CC(Nc1ncc(-c3nnc(N4CC(c5c[nH]nn5)C4)o3)cn1)C2 (centres unmarked) [Example 85, N-(5-(5-(3-(1H-1,2,3-triazol-4-yl)azetidin-1-yl)-1,3,4-oxadiazol-2-yl)pyrimidin-2-yl)-6,7-dihydro-5H-cyclopenta[c]pyridin-6-amine] | 19.8%
CC(C)(C)C(=O)OCn1cc(C2CN(c3nnc(-c4cnc(NCc5ccc6c(c5)OCO6)nc4)o3)C2)nn1 [Example 86, (4-(1-(5-(2-((benzo[d][1,3]dioxol-5-ylmethyl)amino)pyrimidin-5-yl)-1,3,4-oxadiazol-2-yl)azetidin-3-yl)-1H-1,2,3-triazol-1-yl)methyl pivalate] | 2.8%
c1cc2c(cc1CNc1ncc(-c3nnc(N4CC(c5c[nH]nn5)C4)o3)cn1)OCO2 [Example 87, 5-(5-(3-(1H-1,2,3-triazol-4-yl)azetidin-1-yl)-1,3,4-oxadiazol-2-yl)-N-(benzo[d][1,3]dioxol-5-ylmethyl)pyrimidin-2-amine] | 18%
CN(c1ncc(-c2nnc(N3CC(c4c[nH]nn4)C3)o2)cn1)C1Cc2cc(F)c(F)cc2C1 [Example 88, 5-(5-(3-(1H-1,2,3-triazol-4-yl)azetidin-1-yl)-1,3,4-oxadiazol-2-yl)-N-(5,6-difluoro-2,3-dihydro-1H-inden-2-yl)-N-methylpyrimidin-2-amine] | 10.5%
FC1(c2c[nH]nn2)CN(c2nnc(-c3cnc(NC4Cc5ccc(Br)cc5C4)nc3)o2)C1 (centres unmarked) [Example 89, N-(5-bromo-2,3-dihydro-1H-inden-2-yl)-5-(5-(3-fluoro-3-(1H-1,2,3-triazol-4-yl)azetidin-1-yl)-1,3,4-oxadiazol-2-yl)pyrimidin-2-amine] | 84.9%
O=C(CCCc1nnc(NC2Cc3cc(F)c(F)cc3C2)o1)N1CC(c2c[nH]nn2)C1 [Example 90, 1-(3-(1H-1,2,3-triazol-4-yl)azetidin-1-yl)-4-(5-((5,6-difluoro-2,3-dihydro-1H-inden-2-yl)amino)-1,3,4-oxadiazol-2-yl)butan-1-one] | 17.9%
Clc1ccc2c(c1)CC(Nc1ncc(-c3nnc(N4CC(c5c[nH]nn5)C4)o3)cn1)C2 (centres unmarked) [Example 91, 5-(5-(3-(1H-1,2,3-triazol-4-yl)azetidin-1-yl)-1,3,4-oxadiazol-2-yl)-N-(5-chloro-2,3-dihydro-1H-inden-2-yl)pyrimidin-2-amine] | 97.1%
Clc1ccc(CCNc2ncc(-c3nnc(N4CCC(c5c[nH]nn5)C4)o3)cn2)cc1 (centres unmarked) [Example 92, 5-(5-(3-(1H-1,2,3-triazol-4-yl)pyrrolidin-1-yl)-1,3,4-oxadiazol-2-yl)-N-(4-chlorophenethyl)pyrimidin-2-amine] | 85.5%
Clc1ccc(CCNc2ncc(-c3nnc(N4CC(c5c[nH]nn5)C4)o3)cn2)cc1 [Example 93, 5-(5-(3-(1H-1,2,3-triazol-4-yl)azetidin-1-yl)-1,3,4-oxadiazol-2-yl)-N-(4-chlorophenethyl)pyrimidin-2-amine] | 89.3%
